In PMC5668658 (Biochemistry and Biophysics Reports, 2015):

Tests used:
Assay type in all cases: cell-based
[1] = biological target: T1, organic cation transporter 1 (OCT1/SLC22A1) (Homo sapiens, UniProt O15245); assay: inhibition of OCT1-specific [3H]atenolol uptake at […] in MDCKII cells
T1 sequence (O15245 1-554): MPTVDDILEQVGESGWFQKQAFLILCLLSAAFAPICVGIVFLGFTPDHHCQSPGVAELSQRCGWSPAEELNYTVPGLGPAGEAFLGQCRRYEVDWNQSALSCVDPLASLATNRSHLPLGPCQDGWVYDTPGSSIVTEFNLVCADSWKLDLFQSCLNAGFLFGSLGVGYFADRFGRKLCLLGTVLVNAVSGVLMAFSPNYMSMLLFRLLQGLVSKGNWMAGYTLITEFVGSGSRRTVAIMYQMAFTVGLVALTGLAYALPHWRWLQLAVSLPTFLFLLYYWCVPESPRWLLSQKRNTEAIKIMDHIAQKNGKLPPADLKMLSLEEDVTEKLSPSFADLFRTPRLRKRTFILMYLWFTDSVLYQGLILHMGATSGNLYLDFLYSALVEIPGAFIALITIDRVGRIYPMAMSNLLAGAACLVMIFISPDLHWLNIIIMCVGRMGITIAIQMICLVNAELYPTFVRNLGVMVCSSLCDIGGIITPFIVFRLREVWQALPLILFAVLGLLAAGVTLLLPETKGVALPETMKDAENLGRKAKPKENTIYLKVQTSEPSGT

[2] = biological target: T1, organic cation transporter 1 (OCT1/SLC22A1); assay: inhibition of OCT1-specific [3H]atenolol uptake in MDCKII cells stably expressing OCT1
[3] = biological target: T1, organic cation transporter 1 (OCT1/SLC22A1); assay: inhibition of OCT1-specific [3H]atenolol uptake in MDCKII cells stably expressing OCT1; MPP+ uptake also inhibited

| Structure (SMILES) | inhibition of OCT1-specific [3H]atenolol uptake at 100 μM in MDCKII cells [1] | other results |
| --- | --- | --- |
| O=c1cc(-c2ccccc2)oc2cc(O)c(O)c(O)c12 [Baicalein] | exhibited the most potent inhibitory activity |  |
| O=C(CCc1ccc(O)cc1)c1c(O)cc(O)cc1O[C@@H]1O[C@H](CO)[C@@H](O)[C@H](O)[C@H]1O [Phlorizin] | also exhibited inhibitory activities comparable to those of their aglycones |  |
| O=C(CCc1ccc(O)cc1)c1c(O)cc(O)cc1O [phloretin] |  | Ki [2]: 38 µM |
| O=c1c(O)c(-c2ccc(O)c(O)c2)oc2cc(O)cc(O)c12 [quercetin] |  | Ki [3]: 48 µM |
